Results as given in patent publication US7425640B2, “Substituted 5-carboxyamide pyrazoles and [1,2,4]triazoles as antiviral agents” (priority 2004, dated 2008).
Read-outs that look alike come from different tables or passages of the source.

Target: HCV RNA-dependent RNA polymerase NS5B (Δ21) (Hepatitis C virus genotype 1b, UniProt P26663)
Assay: Assay for HCV RNA-dependent RNA polymerase activity (SPA, [3H]-GTP incorporation)
Assay type: biochemical
Conditions: 50 nM NS5B (Δ21)
Experimental: Inhibitory activity of the present compounds against HCV RNA-dependent RNA polymerase was assayed according to the methods disclosed in United States Patent Application US2004/038993, content of which is incorporated herein by reference; and those described in Ferrari, E.; Wright-Minogue, J.; Fang, J. W. S.; Baroudy, B. M.; Lau, J. Y. N.; Hong, Z. J. Virol. 1999, 73, 1649.
Briefly, 50 μl reactions containing 20 mM HEPES (pH 7.3), 7.5 mM DTT, 20 units/ml RNasIN, 0.5 μg/ml biotinylated oligoG12, 5 μg/ml polyC, 5 μM GTP, 20 μCi/ml [^3H]-GTP, 10 mM MgCl2, 60 mM NaCl, 100 μg/ml BSA, and 50 nM NS5B (Δ21) were incubated at room temperature for three hours in 96-well plates with or without test compounds. Assay was terminated by the addition of 50 μl 10 mg/ml streptavidin-coated SPA beads supplemented with 100 mM EDTA, and the incorporation of labeled GTP determined by a TopCount Scintillation Counter. IC50 values were calculated from single experiments using 11 serial 2-fold dilutions (0.05-50 μM), and data were considered reliable only when the IC50 value of a positive internal control was within standard deviation range.

[1] = Δ21 Activity (IC50 μM), class symbols
[2] = read-out: Δ21 Activity (IC50 μM), class symbols
[3] = Δ21 Activity (IC50 μM), numeric values

Sequence of HCV RNA-dependent RNA polymerase NS5B (Δ21) (P26663 2420-2989, stated change not applied): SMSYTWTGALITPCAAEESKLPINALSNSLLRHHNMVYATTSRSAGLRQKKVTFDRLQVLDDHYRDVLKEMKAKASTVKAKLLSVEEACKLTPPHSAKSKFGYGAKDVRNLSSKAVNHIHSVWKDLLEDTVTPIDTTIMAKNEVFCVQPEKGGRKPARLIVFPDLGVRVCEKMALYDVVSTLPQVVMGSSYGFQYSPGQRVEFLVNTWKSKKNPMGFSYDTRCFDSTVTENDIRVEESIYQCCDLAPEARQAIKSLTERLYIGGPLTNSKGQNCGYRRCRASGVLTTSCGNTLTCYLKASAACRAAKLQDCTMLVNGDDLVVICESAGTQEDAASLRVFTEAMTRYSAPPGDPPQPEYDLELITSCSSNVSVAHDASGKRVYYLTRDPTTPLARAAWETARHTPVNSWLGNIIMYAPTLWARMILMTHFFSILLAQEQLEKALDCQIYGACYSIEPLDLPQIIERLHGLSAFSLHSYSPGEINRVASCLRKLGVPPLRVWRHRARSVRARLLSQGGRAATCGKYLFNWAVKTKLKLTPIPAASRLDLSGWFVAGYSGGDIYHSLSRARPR

Row | SMILES | IC50 [1] [µM] | IC50 [2] [µM] | also measured
1 | CCOC(=O)c1cc(C(=O)N[C@H]2CCCC[C@@H]2OCc2ccccc2)n(CC(=O)N(C)[C@H]2CCCC[C@@H]2OCc2ccccc2)n1 [Compound 178] | > 1 | – | –
2 | O=C(Cn1nc(C(=O)NCCc2ccccc2Cl)cc1C(=O)N[C@H]1CCCC[C@@H]1OCc1ccccc1)N[C@H]1CCCC[C@@H]1OCc1ccccc1 [Compound 103] | – | 0.1 to 1 | –
3 | O=C(Cn1nc(C(=O)O)cc1C(=O)Nc1cc(Cl)ccc1OCC1CCCCC1)N[C@H]1CCCC[C@@H]1OCc1ccccc1 [Compound 3] | < 0.05 | – | –
4 | Cc1c(Cl)cccc1S(=O)(=O)Nc1cc(C(=O)N[C@H]2CCCC[C@@H]2OCc2ccccc2)n(CC(=O)N[C@H]2CCCC[C@@H]2OCc2ccccc2)n1 [Compound 67] | – | 0.1 to 1 | –
5 | O=C(Cn1nc(C(=O)N2CCOCC2)cc1C(=O)N[C@H]1CCCC[C@@H]1OCc1ccccc1)N[C@H]1CCCC[C@@H]1OCc1ccccc1 [Compound 150] | – | 0.1 to 1 | –
6 | O=C(Cn1nc(C(=O)NOCC2CC2)cc1C(=O)N[C@H]1CCCC[C@@H]1OCc1ccccc1)N[C@H]1CCCC[C@@H]1OCc1ccccc1 [Compound 72] | – | 0.1 to 1 | –
7 | O=C(Cn1nc(C(=O)NC2CCCc3ccccc32)cc1C(=O)N[C@H]1CCCC[C@@H]1OCc1ccccc1)N[C@H]1CCCC[C@@H]1OCc1ccccc1 (stereo partly shown) [Compound 173] | > 1 | – | –
8 | O=C(Cn1nc(NS(=O)(=O)c2ccc(C(F)(F)F)cc2)cc1C(=O)N[C@H]1CCCC[C@@H]1OCc1ccccc1)N[C@H]1CCCC[C@@H]1OCc1ccccc1 [Compound 47] | 0.05 to 0.1 | – | –
9 | O=C(Cn1nccc1C(=O)N[C@H]1CCCC[C@@H]1OCc1ccccc1)N[C@H]1CCCC[C@@H]1OCc1ccccc1 [Compound 134] | – | 0.1 to 1 | –
10 | O=C(O)CCCCCNC(=O)CCCCCNC(=O)c1cc(C(=O)N[C@H]2CCCC[C@@H]2OCc2ccccc2)n(CC(=O)N[C@H]2CCCC[C@@H]2OCc2ccccc2)n1 [Compound 165] | – | 0.1 to 1 | –
11 | C[C@@H](NC(=O)c1cc(C(=O)NC2CCCCC2OCc2ccccc2)n(CC(=O)N[C@H]2CCCC[C@@H]2OCc2ccccc2)n1)c1cccc2ccccc12 (stereo partly shown) [Compound 74] | – | 0.1 to 1 | –
12 | Nc1ccccc1Oc1ccccc1CNC(=O)c1cc(C(=O)O)nn1CC(=O)N[C@H]1CCCC[C@@H]1OCc1ccccc1 [Compound 209] | > 1 | – | –
13 | CC(C)(C)ONC(=O)c1cc(C(=O)N[C@H]2CCCC[C@@H]2OCc2ccccc2)n(CC(=O)N[C@H]2CCCC[C@@H]2OCc2ccccc2)n1 [Compound 116] | – | 0.1 to 1 | –
14 | O=C(Cn1nc(C(=O)NCc2ccc(C(F)(F)F)cc2)cc1C(=O)N[C@H]1CCCC[C@@H]1OCc1ccccc1)N[C@H]1CCCC[C@@H]1OCc1ccccc1 [Compound 127] | – | 0.1 to 1 | –
15 | O=C(Cn1nc(C(=O)O)cc1C(=O)Nc1cc(C(F)(F)F)ccc1OCc1ccccc1)N[C@H]1CCCC[C@@H]1OCc1ccccc1 [drawing 253] | – | – | IC50 [3]: 0.041 µM
16 | O=C(Cn1nc(C(=O)NCc2ccccc2)cc1C(=O)N[C@H]1CCCC[C@@H]1OCc1ccccc1)N[C@H]1CCCC[C@@H]1OCc1ccccc1 [Compound 50] | – | 0.1 to 1 | –
17 | O=C(Cn1nc(NS(=O)(=O)c2ccccc2F)cc1C(=O)N[C@H]1CCCC[C@@H]1OCc1ccccc1)N[C@H]1CCCC[C@@H]1OCc1ccccc1 [Compound 37] | 0.05 to 0.1 | – | –
18 | O=C(Cn1nc(C(=O)NCCc2ccccc2)cc1C(=O)N[C@H]1CCCC[C@@H]1OCc1ccccc1)N[C@H]1CCCC[C@@H]1OCc1ccccc1 [Compound 131] | – | 0.1 to 1 | –
19 | O=C(Cn1nc(NS(=O)(=O)c2ccc(Br)c(C(=O)O)c2)cc1C(=O)N[C@H]1CCCC[C@@H]1OCc1ccccc1)N[C@H]1CCCC[C@@H]1OCc1ccccc1 [Compound 17] | < 0.05 | – | –
20 | Cc1ccc(OCC2CCCCC2)c(NC(=O)c2cc(C(=O)O)nn2CC(=O)N[C@H]2CCCC[C@@H]2OCc2ccccc2)c1 [Compound 5] | < 0.05 | – | –
21 | Cc1ccc(OCC2CCC2)c(NC(=O)c2cc(C(=O)O)nn2CC(=O)N[C@H]2CCCC[C@@H]2OCc2ccccc2)c1 [Compound 9] | < 0.05 | – | –
22 | O=C(Cn1nc(NS(=O)(=O)c2ccc(O)c(C(=O)O)c2)cc1C(=O)N[C@H]1CCCC[C@@H]1OCc1ccccc1)N[C@H]1CCCC[C@@H]1OCc1ccccc1 | – | – | IC50 [3]: 0.074 µM
